This experiment has as its target T1, RPS6KA4 (MSK2) (Homo sapiens, UniProt O75676).
T1 construct: purchased Thermo Fisher Scientific (Life Technologies) SelectScreen
Nature of the experiment: SelectScreen Z'LYTE. In kind it is biochemical. Summed up:
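Percent values come from Thermo SelectScreen profiling of NU5455, combining activity and binding assays. CSF1R was run in Z'LYTE format at Km app ATP, and CAMK1 in Adapta format with ATP listed at 10.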

Inhibition data for one compound are collected here from article PMC6934184, “Selective DNA-PKcs inhibition extends the therapeutic index of localized radiotherapy and chemotherapy” (The Journal of Clinical Investigation, 2019).

Structures are written as SMILES.

T1 sequence (O75676 whole entry): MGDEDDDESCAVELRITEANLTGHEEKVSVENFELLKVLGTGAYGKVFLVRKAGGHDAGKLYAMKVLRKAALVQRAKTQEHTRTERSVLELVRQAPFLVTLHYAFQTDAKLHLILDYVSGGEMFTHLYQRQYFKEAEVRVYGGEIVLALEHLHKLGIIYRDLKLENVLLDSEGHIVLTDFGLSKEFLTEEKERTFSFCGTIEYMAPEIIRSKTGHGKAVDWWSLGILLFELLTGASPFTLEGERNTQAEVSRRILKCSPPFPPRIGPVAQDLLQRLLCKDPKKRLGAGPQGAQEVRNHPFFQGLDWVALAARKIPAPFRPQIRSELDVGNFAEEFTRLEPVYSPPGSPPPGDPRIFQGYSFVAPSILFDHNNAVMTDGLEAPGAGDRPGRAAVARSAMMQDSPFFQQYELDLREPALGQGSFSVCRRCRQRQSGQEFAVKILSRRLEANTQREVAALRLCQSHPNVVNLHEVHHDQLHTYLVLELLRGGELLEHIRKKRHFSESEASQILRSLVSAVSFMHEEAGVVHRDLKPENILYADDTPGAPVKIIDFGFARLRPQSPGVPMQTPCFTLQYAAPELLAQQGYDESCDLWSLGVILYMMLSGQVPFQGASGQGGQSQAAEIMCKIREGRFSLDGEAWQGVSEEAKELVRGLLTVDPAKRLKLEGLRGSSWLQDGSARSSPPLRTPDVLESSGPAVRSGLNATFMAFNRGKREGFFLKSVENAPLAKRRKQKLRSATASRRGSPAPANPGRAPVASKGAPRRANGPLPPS

The inhibition is the drop in the measured response relative to a control, in per cent. As for `CN(C(=O)CN1CCOCC1)c1ccc2sc3c(-c4cccc5c(=O)cc(N6CC7CCC(C6)O7)oc45)cccc3c2c1` [NU5455], the inhibition at 1 µM came out at 4.2%.
